Data published in patent US6699836B2 (priority 1999, dated 2004).
In brackets after ≈: the same amount, converted by molar mass. Where two headings read alike, the source gives them in different places.

Columns and labels:
Assay in all cases: MIC determination in BHI broth microdilution
Type in all cases: cell-based
S. aureus ATCC 33591 = test system: S. aureus ATCC 33591
Description: (§1) In the Table below, MIC (minimum inhibitory concentration) values of certain compounds of the present invention are provided for the bacterial strains E. faecalis ATCC 29212; E. faecalis CL4877; E. faecium ATCC 49624; E. faecium CL4931; S. aures ATCC 29213; S. aureus ATCC 33591; and E. coli BAS 849. The MICs of the test compounds were determined using bacteria grown in brain heart infusion media (BHI) supplemented with 0.1% casamino acids. Logarithmically growing cells were diluted to approximately 5×10^5 CFU/ml and subjected to test compounds solubilized and serially diluted with DMSO. A 5% final DMSO concentration had no effect on cell viability or killing. After 18 hours at 37° C., the OD600 was determined by reading the ninety-six well microtiter plates on a microplate reader. For a given concentration, an MIC determination was made if: […]

E. coli BAS 849 = settings: E. coli BAS849; BHI with 0.1% casamino acids, 18 hours at 37° C., OD600 ≧90% inhibition
Description: as §1

E. faecalis ATCC 29212 = test system: E. faecalis ATCC 29212
Description: (§2) The MICs of the test compounds were determined using bacteria grown in brain heart infusion media (BHI) supplemented with 0.1% casamino acids. Logarithmically growing cells were diluted to approximately 5×10^5 CFU/ml and subjected to test compounds solubilized and serially diluted with DMSO. […] After 18 hours at 37° C., the OD600 was determined by reading the ninety-six well microtiter plates on a microplate reader. For a given concentration, an MIC determination was made if: […]

E. faecium CL4931 = test system: E. faecium CL4931
Description: as §2

S. aureus ATCC29213 = test system: S. aureus ATCC29213
Description: as §2

E. faecium ATCC 49624 = test system: E. faecium ATCC 49624
Description: as §2

E. faecalis CL4877 = test system: E. faecalis CL4877
Description: as §2

[1] = S. aureus ATCC33591, BHI with 0.1% casamino acids, 18 hours at 37° C., OD600 ≧90% inhibition
[2] = E. faecalis ATCC29212, BHI with 0.1% casamino acids, 18 hours at 37° C., OD600 ≧90% inhibition
[3] = E. faecium CL4931, BHI with 0.1% casamino acids, 18 hours at 37° C., OD600 ≧90% inhibition
[4] = S. aureus ATCC29213, BHI with 0.1% casamino acids, 18 hours at 37° C., OD600 ≧90% inhibition
[5] = E. faecium ATCC49624, BHI with 0.1% casamino acids, 18 hours at 37° C., OD600 ≧90% inhibition
[6] = E. faecalis CL4877, BHI with 0.1% casamino acids, 18 hours at 37° C., OD600 ≧90% inhibition
[7] = Staphylococcus aureus, ATCC33591, 18 h
[8] = Enterococcus faecalis, ATCC29212, 18 h, read-out: MIC
[9] = Enterococcus faecium, CL4931, 18 h, read-out: MIC
[10] = Staphylococcus aureus, ATCC29213, 18 h, read-out: MIC
[11] = Enterococcus faecium, ATCC49624, 18 h, read-out: MIC
[12] = Enterococcus faecalis, CL4877, 18 h, read-out: MIC
[13] = Enterococcus faecalis, ATCC29212, 18 h
[14] = Enterococcus faecium, CL4931, 18 h
[15] = Staphylococcus aureus, ATCC29213, 18 h
[16] = Enterococcus faecium, ATCC49624, 18 h
[17] = Enterococcus faecalis, CL4877, 18 h

| Molecule | MIC (S. aureus ATCC 33591; [1]) | MIC (E. coli BAS 849) | MIC (E. faecalis ATCC 29212; [2]) | MIC (E. faecium CL4931; [3]) | MIC (S. aureus ATCC29213; [4]) | MIC (E. faecium ATCC 49624; [5]) | MIC (E. faecalis CL4877; [6]) | MIC (S. aureus ATCC 33591; [7]) | MIC (E. faecalis ATCC 29212; [8]) | MIC (E. faecium CL4931; [9]) | MIC (S. aureus ATCC29213; [10]) | MIC (E. faecium ATCC 49624; [11]) | MIC (E. faecalis CL4877; [12]) | MIC (E. faecalis ATCC 29212; [13]) | MIC (E. faecium CL4931; [14]) | MIC (S. aureus ATCC29213; [15]) | MIC (E. faecium ATCC 49624; [16]) | MIC (E. faecalis CL4877; [17]) |
| --- | --- | --- | --- | --- | --- | --- | --- | --- | --- | --- | --- | --- | --- | --- | --- | --- | --- | --- |
| 6′-amino-3,4- dichloro- benzyloxylben zyl- vancomycin putrescine amide [TS0216] | 3.12 µg/mL | 3.12 µg/mL | 1.56 µg/mL | 6.25 µg/mL | 3.12 µg/mL | 3.12 µg/mL | 3.12 µg/mL |  |  |  |  |  |  |  |  |  |  |  |
| 6′-amino- chlorobiphenyl methyl- vancomycin putrescine amide [TS0217] | 3.12 µg/mL | 3.12 µg/mL | 1.56 µg/mL | 12.5 µg/mL | 1.56 µg/mL | 1.56 µg/mL | 6.25 µg/mL |  |  |  |  |  |  |  |  |  |  |  |
| 6′-azido-3,4- dichloro- benzyloxyben zyl- vancomycin putrescine amide [TS0220] | 3.1250 µg/mL |  | 1.5625 µg/mL | 3.1250 µg/mL | 1.5625 µg/mL | 0.7813 µg/mL | 1.5625 µg/mL |  |  |  |  |  |  |  |  |  |  |  |
| CN[C@H](CC(C)C)C(=O)N[C@H]1C(=O)N[C@@H](CC(N)=O)C(=O)N[C@H]2C(=O)N[C@H]3C(=O)N[C@H](C(=O)N[C@H](C(=O)O)c4cc(O)cc(O)c4-c4cc3ccc4O)[C@H](O)c3ccc(c(Cl)c3)Oc3cc2cc(c3O[C@@H]2O[C@H](CO)[C@@H](O)[C@H](O)[C@H]2O[C@H]2C[C@](C)(N)[C@H](O)[C@H](C)O2)Oc2ccc(cc2Cl)[C@H]1O [EXT0002, vancomycin, reference compound] | 0.78 to 3.12 µg/mL | 0.78 µg/mL (≈ 0.538 µM) | 1.56 to 3.12 µg/mL | > 25 µg/mL | 1.56 µg/mL (≈ 1.08 µM) | 0.25 to 0.39 µg/mL | > 25 µg/mL |  |  |  |  |  |  |  |  |  |  |  |
| CN[C@H](CC(C)C)C(=O)N[C@H]1C(=O)N[C@@H](CC(N)=O)C(=O)N[C@H]2C(=O)N[C@H]3C(=O)N[C@H](C(=O)N[C@@H](C(=O)NCCCCN)c4cc(O)cc(O)c4-c4cc3ccc4O)[C@H](O)c3ccc(c(Cl)c3)Oc3cc2cc(c3OC2OC(CO)C(O)C(O)C2OC2CC(C)(NCc3ccc(-c4ccc(Cl)cc4)cc3)C(O)C(C)O2)Oc2ccc(cc2Cl)[C@H]1O (stereo partly drawn) [TS0221, chlorobipheny lmethyl- vancomycin putrescine amide] |  |  |  |  |  |  |  | 0.781 µg/mL (≈ 0.454 µM) | 1.56 µg/mL (≈ 0.908 µM) | 6.25 µg/mL (≈ 3.63 µM) | 1.56 µg/mL (≈ 0.908 µM) | 0.25 µg/mL (≈ 0.145 µM) | 12.5 µg/mL (≈ 7.27 µM) |  |  |  |  |  |
| CN[C@H](CC(C)C)C(=O)N[C@H]1C(=O)N[C@@H](CC(N)=O)C(=O)N[C@H]2C(=O)NC3C(=O)N[C@H](C(=O)N[C@@H](C(=O)NCCCCN)c4cc(O)cc(O)c4-c4cc3ccc4O)[C@H](O)c3ccc(c(Cl)c3)Oc3cc2cc(c3OC2OC(CN=[N+]=[N-])C(O)C(O)C2OC2CC(C)(NCc3ccc(-c4ccc(Cl)cc4)cc3)C(O)C(C)O2)Oc2ccc(cc2Cl)[C@H]1O (stereo partly drawn) [TS0222] |  |  |  |  |  |  |  | 3.12 µg/mL (≈ 1.79 µM) | 0.781 µg/mL (≈ 0.448 µM) | 3.12 µg/mL (≈ 1.79 µM) | 1.56 µg/mL (≈ 0.895 µM) | 0.25 µg/mL (≈ 0.143 µM) | 3.12 µg/mL (≈ 1.79 µM) |  |  |  |  |  |
| CN[C@H](CC(C)C)C(=O)N[C@H]1C(=O)N[C@@H](CC(N)=O)C(=O)N[C@H]2C(=O)NC3C(=O)N[C@H](C(=O)N[C@@H](C(=O)NCCN)c4cc(O)cc(O)c4-c4cc3ccc4O)[C@H](O)c3ccc(c(Cl)c3)Oc3cc2cc(c3OC2OC(CN=[N+]=[N-])C(O)C(O)C2OC2CC(C)(NCc3ccc(OCc4ccc(Cl)c(Cl)c4)cc3)C(O)C(C)O2)Oc2ccc(cc2Cl)[C@H]1O (stereo partly drawn) [TS0256, 6′-azido-3,4-dichlorobenzyl oxylbenzyl-vancomycin 2-aminoethyl amide] |  |  |  |  |  |  |  | 1.56 µg/mL (≈ 0.876 µM) |  |  |  |  |  | 3.12 µg/mL (≈ 1.75 µM) | 6.25 µg/mL (≈ 3.51 µM) | 1.56 µg/mL (≈ 0.876 µM) | 0.39 µg/mL (≈ 0.219 µM) | 1.56 µg/mL (≈ 0.876 µM) |
| CN[C@H](CC(C)C)C(=O)N[C@H]1C(=O)N[C@@H](CC(N)=O)C(=O)N[C@H]2C(=O)NC3C(=O)N[C@H](C(=O)N[C@@H](C(=O)NCCN)c4cc(O)cc(O)c4-c4cc3ccc4O)[C@H](O)c3ccc(c(Cl)c3)Oc3cc2cc(c3OC2OC(CN)C(O)C(O)C2OC2CC(C)(NCc3ccc(OCc4ccc(Cl)c(Cl)c4)cc3)C(O)C(C)O2)Oc2ccc(cc2Cl)[C@H]1O (stereo partly drawn) [TS0258, 6′-amino-3,4-dichlorobenzyl oxylbenzyl-vancomycin 2-aminoethyl amide] |  |  |  |  |  |  |  | 12.5 µg/mL (≈ 7.12 µM) |  |  |  |  |  | 12.5 µg/mL (≈ 7.12 µM) | 25 µg/mL (≈ 14.2 µM) | 25 µg/mL (≈ 14.2 µM) | 3.12 µg/mL (≈ 1.78 µM) | 25 µg/mL (≈ 14.2 µM) |
| N-methyl, N- chlorobiphenyl methyl-D- leucyl-6′-azido- chlorobiphenyl methyl vancomycin putrescine amide [TS0259] | 1.56 µg/mL |  | 3.12 µg/mL | 6.25 µg/mL | 3.12 µg/mL | 1.56 µg/mL | 12.5 µg/mL |  |  |  |  |  |  |  |  |  |  |  |
